The values that follow come from PubChem BioAssay (NCI).

Experiment in all cases: inhibition of tumour cell growth, NCI panel, 48 h
The test system of assay [1] is HT29 colon.
In assay [2] the test system is MALME-3M melanoma.
The test system of assay [3] is CCRF-CEM leukemia.
The subject of assay [4] is HOP-62 NSCLC.
For assay [5], the system named is OVCAR-8 ovarian.
Assay [6] concerns BT-549 breast.
Assay [7] has as its system SNB-75 CNS.
Assay [8] concerns OVCAR-5 ovarian.
Assay [9] has as its system MCF7 breast.
For assay [10], the system named is CAKI-1 renal.

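Growth conditions: 96-well plates. Treatment: test compound, 48 hours, 5 concentrations. Analysis: linear interpolation between bracketing concentrations; unreached endpoints set to highest concentration. Abbreviation: GI50, concentration required for 50% inhibition of growth. TGI: total growth inhibition.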 Bounds are passed on as bounds.

As for `CCOC(=O)c1[nH]c2cccc3c2c1CC[C@H](NC(=O)C(F)(F)F)C3=O`, the TGI in assay [1] is above 100 µM; in assay [2], above 100 µM; in assay [3], above 100 µM; in assay [4], 72.5 µM; in assay [5], above 100 µM; in assay [6] it was above 100 µM. Also, the TGI in assay [7] is 56.7 µM; in assay [8], above 100 µM; in assay [9] it was above 100 µM; in [10] it was 28 µM.

`COC1=C2C=[N+](C)C3C(=C2C=CC1OC)Cc1cc2c(cc13)OCO2` (stereo unspecified): the TGI in assay [1] was 26.3 µM; in assay [2] it was 18.8 µM; in assay [3], above 100 µM; in assay [4], 26.8 µM; in [5] it was above 100 µM; in [6], 28.1 µM. Besides, the TGI in assay [7] stood at 28 µM; in [8] it was 32.1 µM; in [9] it was 21.5 µM; in assay [10], 29.3 µM.

Regarding `Cc1cc2oc(C)c(S(=O)(=O)NC(=O)Nc3ccc(Cl)cc3)c(=O)c2c(=O)o1`, the TGI in [1], in [2], in assay [3], in [4], in assay [5] and in assay [6] was above 100 µM in each case. Moreover, the TGI in [7], in assay [8], in assay [9] and in assay [10] was above 100 µM each time.

Take `O=C(N/N=C(/COc1ccccc1Cl)N=Cc1ccncc1)c1ccncc1`: the TGI in assay [1], in assay [2], in assay [3], in [4], in assay [5] and in assay [6] was above 100 µM each time. Also, the TGI in [7] was 98.7 µM; in assay [8] it was above 100 µM; in [9], above 100 µM; in assay [10] it was above 100 µM.

For `C=Cc1nc(C#N)c(N)o1`, the TGI in assay [1], in [2], in assay [3], in assay [4], in assay [5] and in assay [6] was above 100 µM each time. The TGI in [7], in assay [8], in assay [9] and in [10] was above 100 µM each time.

On to `CC(=O)OC(C)(C)CCC(=O)[C@](C)(O)[C@H]1[C@H](O)C[C@@]2(C)[C@@H]3CC=C4C(C)=C(OC5OC(CO)C(O)C(O)C5O)C(=O)C[C@@H]4[C@]3(C)C(=O)C[C@]12C` (stereo partly specified), for which the TGI in [1], in assay [2], in [3], in assay [4], in assay [5] and in [6] was above 100 µM in each case. For the same compound, the TGI in [7], in assay [8], in assay [9] and in [10] was above 100 µM each time.

For the compound `COc1cc2c(cc1OC)[C@@](C)(C(O)C(O)C(C)(C)O)NCC2` (stereo partly specified), the TGI in assay [1], in assay [2], in assay [3], in [4], in assay [5] and in assay [6] was above 100 µM in each case. For the same compound, the TGI in assay [7], in [8], in [9] and in assay [10] was above 100 µM in each case.

For the compound `Cc1ccc(S(=O)(=O)N/N=C2/CCC(C(C)(C)C)CC2Br)cc1` (stereo unspecified), the TGI in assay [1] was 88.9 µM; in [2], 31.2 µM; in assay [3], 64.2 µM; in assay [4] it was above 100 µM; in [5], above 100 µM; in assay [6] it was 75.1 µM. Also, the TGI in assay [7] came to 87 µM; in [8], 43.6 µM; in [9], 51.9 µM; in [10], 69.1 µM.

On to `COc1c2ccsc2c(OC)c2ccsc12`, for which the TGI in assay [1], in assay [2], in [3], in [4], in [5] and in assay [6] was above 100 µM each time. For the same compound, the TGI in [7] was above 100 µM; in assay [8], above 100 µM; in [9], above 100 µM; in [10], 40 µM.

On to `CCOC(=O)C(=CN1CCNC1=S)C(=O)OCC`, for which the TGI in [1], in assay [2], in assay [3], in assay [4], in [5] and in [6] was above 100 µM throughout. The TGI in assay [7], in assay [8], in [9] and in assay [10] was above 100 µM each time. The GI50 in [7] was above 100 µM.
